The values that follow come from PubChem BioAssay (NCI).

Some test systems named below: A549 NSCLC; ACHN renal; HCT-15 colon; HL-60(TB) leukemia; IGROV1 ovarian; MALME-3M melanoma; OVCAR-5 ovarian; SW-620 colon; U251 CNS; UACC-62 melanoma.
What all share (assay): DTP human tumour cell line panel, 48 h

Several values for one entry are separate records, joined by “and”; a condition that tells them apart may be missing. Equal entries are not always repeated.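 The compound was tested at five concentrations on cells cultured in 96-well plates, with a 48-hour exposure period. GI50: concentration for 50% inhibition of growth. The concentration for full growth arrest is given as TGI.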 Bounds are passed on as bounds.

By TGI is commonly meant the concentration at which net growth stops. Read a low TGI as more potent growth arrest. Turning to `Cn1c(N)c(N=Nc2ccc(S(N)(=O)=O)cc2)c(=O)n(C)c1=O`, the TGI in the assay with A549 NSCLC, in the assay with ACHN renal, in the assay on HCT-15 colon, in the assay with HL-60(TB) leukemia, with IGROV1 ovarian and in the assay on MALME-3M melanoma was over 100 µM throughout. For the same compound, the concentration for total growth inhibition (TGI) in the assay with OVCAR-5 ovarian, in the assay on SW-620 colon, in the assay with U251 CNS and in the assay with UACC-62 melanoma was over 100 µM throughout.
What is called GI50 is the concentration that inhibits growth by half. Regarding `COc1ccc(/C(C)=C(\c2ccc(Cl)cc2)c2ccc(OCCN3CCCCC3)cc2)cc1F`, the GI50 with A549 NSCLC was 4.43 µM; with ACHN renal it was 4.93 µM; in the assay with HCT-15 colon, 0.943 µM; in the assay on HL-60(TB) leukemia it was 2.85 µM; in the assay on IGROV1 ovarian, 3.16 µM; in the assay with MALME-3M melanoma, 2.18 µM. The GI50 in the assay with OVCAR-5 ovarian is 3.06 µM; with SW-620 colon, 2.34 µM; in the assay with U251 CNS, 2.68 µM; in the assay on UACC-62 melanoma, 3.68 µM. The TGI in the assay with A549 NSCLC is over 16.7 µM; with ACHN renal, 14.4 µM; in the assay on HCT-15 colon it was 3.37 µM; in the assay with HL-60(TB) leukemia, 6.82 µM; in the assay on IGROV1 ovarian, 9.37 µM; in the assay with MALME-3M melanoma it was 4.46 µM. Also, the TGI with OVCAR-5 ovarian came out at 9.45 µM; in the assay on SW-620 colon, 5.35 µM; in the assay on U251 CNS, 6.51 µM; in the assay with UACC-62 melanoma, 8.9 µM.
Turning to `CC(=O)OC1C(OC/C2=C/C3[C@@H](C(C)C)CC=C(C)[C@@H]3CC(OC(=O)/C=C/c3cn(C)cn3)[C@]3(C)C=C[C@@]2(O)O3)OCC(O)C1O` (some centres undefined), the GI50 in the assay on A549 NSCLC is 0.0206 µM; with ACHN renal, 0.381 µM; with HCT-15 colon it was 1.2 µM; in the assay on HL-60(TB) leukemia, 0.0164 µM; in the assay on IGROV1 ovarian, 0.0737 µM; in the assay on MALME-3M melanoma, 0.0195 µM. Also, the GI50 is 0.0207 µM in the assay on OVCAR-5 ovarian, 0.0188 µM in the assay on SW-620 colon, 0.016 µM in the assay with U251 CNS and 0.0242 µM with UACC-62 melanoma. Moreover, the concentration for total growth inhibition (TGI) in the assay with A549 NSCLC is over 50 µM; in the assay on ACHN renal, over 50 µM; in the assay on HCT-15 colon, over 50 µM; with HL-60(TB) leukemia it was 1.51 µM; in the assay with IGROV1 ovarian, over 50 µM; in the assay on MALME-3M melanoma, over 50 µM. The TGI is over 50 µM in the assay with SW-620 colon, over 30.3 µM in the assay with U251 CNS and over 50 µM in the assay with UACC-62 melanoma.
With `C[CH2][Ge]1([CH2]C)[CH2]CC2(CCN(CCCN(C)C)C2)C[CH2]1`, the GI50 was 1.44 µM and 2.35 µM in the assay with A549 NSCLC; 1.84 µM and 1.7 µM with ACHN renal; 1.07 µM and 1.51 µM with HCT-15 colon; 0.312 µM and 1.21 µM in the assay on HL-60(TB) leukemia; 1.75 µM and 4.54 µM in the assay with IGROV1 ovarian; 1.05 µM and 2.65 µM with MALME-3M melanoma. Further, the GI50 is 1.84 µM and 2.45 µM in the assay on OVCAR-5 ovarian; 1.46 µM and 1.65 µM in the assay with SW-620 colon; 1.73 µM and 5.49 µM in the assay with U251 CNS; 0.875 µM and 1.57 µM with UACC-62 melanoma. Moreover, the TGI in the assay on A549 NSCLC was 2.93 µM and 4.47 µM; in the assay on ACHN renal, 3.66 µM and 3.95 µM; with HCT-15 colon, 2.74 µM and 2.65 µM; in the assay on HL-60(TB) leukemia it was 1.61 µM and 1.79 µM; with IGROV1 ovarian, 3.42 µM and 10.8 µM; in the assay on MALME-3M melanoma, 1.96 µM and 4.33 µM. Besides, the TGI in the assay with OVCAR-5 ovarian is 3.8 µM and 5.19 µM; in the assay on SW-620 colon it was 2.89 µM and 2.31 µM; with U251 CNS, 3.69 µM and 9.77 µM; in the assay with UACC-62 melanoma it was 1.78 µM and 3.19 µM.
Turning to `NCCN.O=N[O-].O=N[O-].O=N[O-].O=N[O-].[Co+3].[K+]`, the GI50 with A549 NSCLC, in the assay with ACHN renal, with HCT-15 colon, with HL-60(TB) leukemia, in the assay with IGROV1 ovarian and in the assay with MALME-3M melanoma was over 100 µM in each case. Moreover, the GI50 in the assay on OVCAR-5 ovarian, in the assay on SW-620 colon, in the assay with U251 CNS and in the assay on UACC-62 melanoma was over 100 µM each time. The TGI with A549 NSCLC, in the assay with ACHN renal, with HCT-15 colon, with HL-60(TB) leukemia, in the assay with IGROV1 ovarian and in the assay on MALME-3M melanoma was over 100 µM throughout. For the same compound, the TGI in the assay with OVCAR-5 ovarian, in the assay on SW-620 colon, in the assay on U251 CNS and in the assay on UACC-62 melanoma was over 100 µM in each case.
As to `CC(=O)OC12CCCCC1C1(CCCC1)NC2=O` (centres undefined), the TGI in the assay on A549 NSCLC, with ACHN renal, in the assay with HCT-15 colon, in the assay on HL-60(TB) leukemia, with IGROV1 ovarian and with MALME-3M melanoma was over 100 µM throughout. Also, the TGI with OVCAR-5 ovarian, in the assay with SW-620 colon, in the assay with U251 CNS and with UACC-62 melanoma was over 100 µM in each case.
As for `COc1ccc(/C=C2\CN(Cc3cn(CCCNc4ccnc5cc(Cl)ccc45)nn3)C/C(=C\c3ccc(OC)cc3)C2=O)cc1`, the GI50 in the assay with A549 NSCLC is 5.07 µM; in the assay with ACHN renal it was 12.9 µM; in the assay on HCT-15 colon, 1.83 µM; in the assay with HL-60(TB) leukemia it was 3.27 µM; in the assay with IGROV1 ovarian, 4.86 µM; with MALME-3M melanoma, 2.09 µM. For the same compound, the GI50 with OVCAR-5 ovarian was 21 µM; in the assay with SW-620 colon, 1.69 µM; with U251 CNS, 5.53 µM; in the assay with UACC-62 melanoma it was 16.3 µM. The TGI was found to be 19.5 µM in the assay with A549 NSCLC; 25.6 µM with ACHN renal; 5.14 µM in the assay with HCT-15 colon; 18.2 µM in the assay on HL-60(TB) leukemia; 17.6 µM with IGROV1 ovarian; 5.37 µM in the assay on MALME-3M melanoma. For the same compound, the TGI with OVCAR-5 ovarian amounted to 44.2 µM; in the assay with SW-620 colon, 3.57 µM; in the assay on U251 CNS, 18.9 µM; in the assay on UACC-62 melanoma, 32.1 µM.
For the compound `Cc1nc2cc(NC(=O)CN3CCN(CCN4C(=O)c5cccc6cccc(c56)C4=O)CC3)ccc2s1`, the GI50 is 4.14 µM with A549 NSCLC; 3.5 µM in the assay on ACHN renal; 3.58 µM in the assay on HCT-15 colon; 6.36 µM in the assay on HL-60(TB) leukemia; 6.05 µM with IGROV1 ovarian; 4.99 µM with MALME-3M melanoma. Further, the GI50 in the assay on OVCAR-5 ovarian was 14.1 µM; in the assay with SW-620 colon, 2.6 µM; in the assay with U251 CNS, 4.37 µM; in the assay on UACC-62 melanoma, 4.98 µM. Also, the TGI with A549 NSCLC is 19.2 µM; in the assay with ACHN renal it was 25 µM; with HCT-15 colon, 16.5 µM; with HL-60(TB) leukemia, 26.3 µM; in the assay on IGROV1 ovarian, over 100 µM; with MALME-3M melanoma, over 100 µM. Further, the TGI in the assay on OVCAR-5 ovarian is over 100 µM; in the assay on SW-620 colon, 24.3 µM; with U251 CNS it was 18.9 µM; with UACC-62 melanoma, 17.6 µM.
